Reference: the SangsterLogP compilation

Point of comparison: `Nc1cc(N(C2CCCCC2)C2CCCCC2)nc(N)[n+]1[O-]`, logP 3.89. Against it:
- CCNc1cc(N)[n+]([O-])c(N)n1 — lower, -0.04
- Nc1cc(NC2CCCCC2)nc(N)[n+]1[O-] — lower, 1.62
- C=CCN(CC=C)c1cc(N)[n+]([O-])c(N)n1 — lower, 1.6
- CN(C)c1cc(N)[n+]([O-])c(N)n1 — lower, 0.16
- CCCCNc1cc(N)[n+]([O-])c(N)n1 — lower, 1.02
- CCN(CC)c1cc(N)[n+]([O-])c(N)n1 — lower, 1.16
- N=c1nc(N)c(N2CCCC2)cn1O — lower, 0.84
- CCCCN(CCCC)c1cc(N)[n+]([O-])c(N)n1 — lower, 3.19
- CNc1cc(N)[n+]([O-])c(N)n1 — lower, -0.49
- Nc1cc(N2CCOCC2)nc(N)[n+]1[O-] — lower, 0.36
- CCCN(CCC)c1cc(N)[n+]([O-])c(N)n1 — lower, 2.16
- CCCCCCCCCCNc1cc(N)[n+]([O-])c(N)n1 — within 0.2 log units, 4.08
